Measurements: patent US7868026B2, “Therapeutic compounds” (Pfizer Inc., priority 2005, dated 2011)
Where two headings read alike, the source gives them in different places.

Assays:
Assay type in all cases: biochemical
CYP3A4 [1] = target: T1, CYP3A4 (Homo sapiens, UniProt P08684); assay: Determination of compound Kiapp against recombinant CYP3A4 enzyme (BFC fluorescent substrate)
Method in brief: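 Recombinant CYP3A4 (5.5 or 8 nM, with or without b5 depending on source) pre-incubated with inhibitor ≥30 min at room temperature in 100 mM sodium phosphate pH 7.0, 5 mM TCEP, 2% DMF. Reaction started with 200 uM NADPH and 5 uM BFC; initial fluorescence rates over 5 min fitted to Morrison tight-binding (non-partial) or Szedlacsek (partial) equations for Kiapp.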

CYP3A4 [2] = target: T1, CYP3A4; assay: Determination of IC50 against CYP3A4 by measurement of inhibition of testosterone metabolism (human liver microsomes, 6-β-OH-testosterone by LC-MS/MS); parameters: 0.1 mg/mL human liver microsomes; details: read-out: IC50 (Testo.)
Method in brief: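 Human liver microsomes (0.1 mg/mL) incubated with 25 μM testosterone and 1 mM NADPH in 100 mM potassium phosphate, pH 7.4, for eight minutes. 6-β-OH-testosterone measured by LC-MS/MS in MRM mode against an internal standard and quantified from a metabolite standard curve.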

CYP3A4 [3] = target: T1, CYP3A4; assay: Determination of IC50 against CYP3A4 by measurement of inhibition of midazolam metabolism (human liver microsomes, 1-hydroxymidazolam by LC-MS/MS); parameters: 0.1 mg/mL human liver microsomes; details: 2 μM midazolam, 0.1 mg/mL human liver microsomes
Method in brief: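 Human liver microsomes (0.1 mg/mL) incubated 8 min with 2 μM midazolam and 1 mM NADPH in 100 mM potassium phosphate, pH 7.4. 1-Hydroxymidazolam quantified by LC-MS/MS (MRM) as peak area ratio to internal standard against a metabolite standard curve.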

[4] = Baculo. enzyme preparation, read-out: Kiapp (BFC, Baculo.)
[5] = Super. enzyme preparation, read-out: Kiapp (BFC, Super.)

T1 sequence (P08684 whole entry): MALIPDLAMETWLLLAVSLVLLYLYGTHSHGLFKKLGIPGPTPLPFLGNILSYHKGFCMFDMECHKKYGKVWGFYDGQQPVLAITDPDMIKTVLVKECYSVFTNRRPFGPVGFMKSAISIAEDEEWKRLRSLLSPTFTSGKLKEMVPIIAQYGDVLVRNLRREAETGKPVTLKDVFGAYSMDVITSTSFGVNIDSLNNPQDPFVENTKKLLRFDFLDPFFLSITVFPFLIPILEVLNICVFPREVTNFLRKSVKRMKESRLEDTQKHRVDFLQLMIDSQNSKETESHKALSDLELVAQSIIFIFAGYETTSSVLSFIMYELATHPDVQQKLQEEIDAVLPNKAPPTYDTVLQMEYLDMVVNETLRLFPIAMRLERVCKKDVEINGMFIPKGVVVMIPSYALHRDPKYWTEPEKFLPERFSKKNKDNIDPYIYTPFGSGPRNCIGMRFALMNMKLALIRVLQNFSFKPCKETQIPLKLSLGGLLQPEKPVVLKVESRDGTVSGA

For `Cc1ccncc1NS(=O)(=O)c1ccccc1C(=O)N(C)CCC(C)C` [Example 164, N-methyl-N-(3-methylbutyl)-2-{[(4-methylpyridin-3-yl)amino]sulfonyl}benzamide], the Ki (CYP3A4 [1]; [4]) was 281 nM, the Ki (CYP3A4 [1]; [5]) was 34.3 nM and the IC50 (CYP3A4 [2]) was 47 nM. For the same compound, the IC50 (CYP3A4 [3]) was 24 nM.
In the case of `COC1CCN(C(=O)c2ccccc2S(=O)(=O)Nc2cccnc2)CC1` [Example 26, 2-[(4-methoxypiperidin-1-yl)carbonyl]-N-pyridin-3-ylbenzenesulfonamide], the Ki (CYP3A4 [1]; [4]) is reported as > 1000 nM, the IC50 (CYP3A4 [2]) is reported as 691 nM and the IC50 (CYP3A4 [3]) is reported as 494 nM.
With `CCOc1cncc(NS(=O)(=O)c2ccccc2C(=O)NC2CC2)c1` [Example 301, N-cyclopropyl-2-{[(5-ethoxypyridin-3-yl)amino]sulfonyl}benzamide] the Ki (CYP3A4 [1]; [4]) was 409 nM, the Ki (CYP3A4 [1]; [5]) was 152 nM and the IC50 (CYP3A4 [2]) was > 750 nM. It also gave an IC50 (CYP3A4 [3]) of 140 nM.
`COc1cncc(NS(=O)(=O)c2ccccc2C(=O)NC2C3CC4CC(C3)CC2C4)c1` (stereo not shown) [Example 201, N-2-adamantyl-2-{[(5-methoxypyridin-3-yl)amino]sulfonyl}benzamide] showed a Ki (CYP3A4 [1]; [4]) of 29.3 nM, a Ki (CYP3A4 [1]; [5]) of 8 nM and an IC50 (CYP3A4 [2]) of 16 nM. The IC50 (CYP3A4 [3]) was 9 nM.
For `COc1cncc(NS(=O)(=O)c2ccccc2C(=O)NCc2ccc(F)c(F)c2)c1` [Example 368, N-(3,4-difluorobenzyl)-2-{[(5-methoxypyridin-3-yl)amino]sulfonyl}benzamide], the Ki (CYP3A4 [1]; [4]) was 7.6 nM, the Ki (CYP3A4 [1]; [5]) was 1.1 nM and the IC50 (CYP3A4 [2]) was 18 nM. The IC50 (CYP3A4 [3]) was 6 nM.
`CCCCCN(C)C(=O)c1ccccc1S(=O)(=O)Nc1cncc(C)c1` [Example 341, N-methyl-2-{[(5-methylpyridin-3-yl)amino]sulfonyl}-N-pentylbenzamide] gave a Ki (CYP3A4 [1]; [4]) of 36.6 nM, a Ki (CYP3A4 [1]; [5]) of 13.1 nM and an IC50 (CYP3A4 [2]) of 26 nM. The IC50 (CYP3A4 [3]) was 22 nM.
`Cc1cc(CNC(=O)c2ccccc2S(=O)(=O)Nc2cnccc2C)ccc1F` [Example 167, N-(4-fluoro-3-methylbenzyl)-2-{[(4-methylpyridin-3-yl)amino]sulfonyl}benzamide] was tested, and the Ki (CYP3A4 [1]; [4]) was 159 nM, the Ki (CYP3A4 [1]; [5]) was 17.4 nM and the IC50 (CYP3A4 [2]) was 16 nM. It also gave an IC50 (CYP3A4 [3]) of 9 nM.
Compound `CCCCCNC(=O)c1ccccc1S(=O)(=O)Nc1cncc(OC)c1` [Example 377, 2-{[(5-methoxypyridin-3-yl)amino]sulfonyl}-N-pentylbenzamide] has a Ki (CYP3A4 [1]; [4]) of 76.3 nM, a Ki (CYP3A4 [1]; [5]) of 17.6 nM and an IC50 (CYP3A4 [2]) of 33 nM. For the same compound, the IC50 (CYP3A4 [3]) was 21 nM.
For `COc1cncc(NS(=O)(=O)c2ccccc2C(=O)NCc2ccc(Cl)cc2F)c1` [Example 150, N-(4-chloro-2-fluorobenzyl)-2-{[(5-methoxypyridin-3-yl)amino]sulfonyl}benzamide], the Ki (CYP3A4 [1]; [4]) was 52.2 nM, the Ki (CYP3A4 [1]; [5]) was 9.2 nM and the IC50 (CYP3A4 [2]) was 15 nM. The IC50 (CYP3A4 [3]) was 38 nM.
Work on `Cc1cncc(NS(=O)(=O)c2ccccc2C(=O)N(C)CCc2ccccc2)c1` [Example 344, N-methyl-2-{[(5-methylpyridin-3-yl)amino]sulfonyl}-N-(2-phenylethyl)benzamide] yielded a Ki (CYP3A4 [1]; [4]) of 54.4 nM, a Ki (CYP3A4 [1]; [5]) of 21.2 nM and an IC50 (CYP3A4 [2]) of 9 nM. It also gave an IC50 (CYP3A4 [3]) of 7 nM.
In the case of `CCCN(CC1CC1)C(=O)c1ccccc1S(=O)(=O)Nc1cccnc1` [Example 54, N-(cyclopropylmethyl)-N-propyl-2-[(pyridin-3-ylamino)sulfonyl]benzamide], the Ki (CYP3A4 [1]; [4]) is reported as 239 nM, the IC50 (CYP3A4 [2]) is reported as 26 nM and the IC50 (CYP3A4 [3]) is reported as 15 nM.
In the case of `Cc1cncc(NS(=O)(=O)c2ccccc2C(=O)NC(C)(C)C)c1` [Example 354, N-(tert-butyl)-2-{[(5-methyl-pyridin-3-yl)amino]sulfonyl} benzamide], the Ki (CYP3A4 [1]; [4]) is reported as 305 nM, the Ki (CYP3A4 [1]; [5]) is reported as 25.3 nM and the IC50 (CYP3A4 [2]) is reported as 61 nM. The IC50 (CYP3A4 [3]) was 31 nM.
`CCOc1cncc(NS(=O)(=O)c2ccccc2C(=O)NCc2ccc(Cl)c(Cl)c2)c1` [Example 291, N-(3,4-dichlorobenzyl)-2-{[(5-ethoxypyridin-3-yl)amino]sulfonyl}benzamide] gave a Ki (CYP3A4 [1]; [4]) of 4.5 nM, a Ki (CYP3A4 [1]; [5]) of 2.98 nM and an IC50 (CYP3A4 [2]) of 27 nM. It also gave an IC50 (CYP3A4 [3]) of 21 nM.
With `COc1cncc(NS(=O)(=O)c2ccc(OC3CCNCC3)cc2C(=O)N(C)C(C)C)c1` [Example 243, N-isopropyl-2-{[(5-methoxypyridin-3-yl)amino]sulfonyl}-N-methyl-5-(piperidin-4-yloxy)benzamide] the Ki (CYP3A4 [1]; [4]) was 28.4 nM, the Ki (CYP3A4 [1]; [5]) was 85.8 nM and the IC50 (CYP3A4 [2]) was 264 nM. It also gave an IC50 (CYP3A4 [3]) of 69 nM.
With `CCOc1cncc(NS(=O)(=O)c2ccccc2C(=O)NC(C)(C)C)c1` [Example 294, N-(tert-butyl)-2-{[(5-ethoxy-pyridin-3-yl)amino]sulfonyl} benzamide] the Ki (CYP3A4 [1]; [4]) was 135 nM, the Ki (CYP3A4 [1]; [5]) was 32.1 nM and the IC50 (CYP3A4 [2]) was 57 nM. For the same compound, the IC50 (CYP3A4 [3]) was 24 nM.
